Measurements published in the NIST ThermoML archive (doi:10.1016/j.jct.2013.09.032).
± gives the expanded uncertainty stated by the source.

Assays:
[1] = for mass density / viscosity: 101.33 kPa, Liquid; for mass density: Vibrating tube method; for viscosity: Falling or rolling sphere viscometry
[2] = refractive index (Na D-line) (dimensionless); settings: 101.33 kPa, Liquid, Standard Abbe refractometry

In the case of `c1ccsc1` [thiophene], the mass density ([1]; 298.15 K) is reported as 1058.64 ± 1 kg/m3 and the refractive index ([2]; 298.15 K) is reported as 1.52527 ± 0.0007.
`CCCO` [propan-1-ol] gave a mass density ([1]; 298.15 K) of 799.52 ± 1 kg/m3 and a refractive index ([2]; 298.15 K) of 1.38375 ± 0.00068.
Compound `CCCCCC[n+]1ccc(C#N)cc1.O=S(=O)([N-]S(=O)(=O)C(F)(F)F)C(F)(F)F` [1-hexyl-4-cyanopyridinium bis(trifluoromethylsulfonyl)imide] has a mass density ([1]; 298.15 K) of 1407 ± 1.9 kg/m3.
In the case of `c1ccc2sccc2c1` [benzo[b]thiophene], the mass density ([1]; 308.15 K) is reported as 1150.55 ± 1.1 kg/m3, the mass density ([1]; 310.15 K) is reported as 1149.31 ± 1.1 kg/m3 and the mass density ([1]; 313.15 K) is reported as 1146.05 ± 1.1 kg/m3. It also gave a mass density ([1]; 318.15 K) of 1141.56 ± 1.1 kg/m3, a mass density ([1]; 323.15 K) of 1137.07 ± 1.1 kg/m3 and a mass density ([1]; 328.15 K) of 1132.58 ± 1.1 kg/m3. It also gave a mass density ([1]; 333.15 K) of 1128.08 ± 1.1 kg/m3, a mass density ([1]; 338.15 K) of 1123.59 ± 1 kg/m3 and a mass density ([1]; 343.15 K) of 1119.1 ± 1 kg/m3. The mass density ([1]; 348.15 K) was 1114.61 ± 1 kg/m3, the mass density ([1]; 353.15 K) was 1110.11 ± 1 kg/m3 and the mass density ([1]; 358.15 K) was 1105.61 ± 1 kg/m3. It also gave a mass density ([1]; 363.15 K) of 1101.11 ± 1 kg/m3 and a refractive index ([2]; 310.15 K) of 1.638 ± 0.0007.
`CCCCCCC` [heptane] showed a mass density ([1]; 298.15 K) of 679.48 ± 1 kg/m3 and a refractive index ([2]; 298.15 K) of 1.38519 ± 0.00068.
For `CC(C)=O` [acetone], the mass density ([1]; 298.15 K) was 785.23 ± 1 kg/m3 and the refractive index ([2]; 298.15 K) was 1.356 ± 0.0007.
For `CCCC[n+]1cccc(C#N)c1.O=S(=O)([N-]S(=O)(=O)C(F)(F)F)C(F)(F)F` [1-butyl-3-cyanopyridinium bis(trifluoromethylsulfonyl)imide], the mass density ([1]; 298.15 K) was 1479.79 ± 2.1 kg/m3.
`CCCC[n+]1ccc(C#N)cc1.O=S(=O)([N-]S(=O)(=O)C(F)(F)F)C(F)(F)F` [1-butyl-4-cyanopyridinium bis(trifluoromethylsulfonyl)imide] showed a mass density ([1]; 278.15 K) of 1492.99 ± 2.1 kg/m3, a mass density ([1]; 288.15 K) of 1483.58 ± 2.1 kg/m3 and a mass density ([1]; 298.15 K) of 1474.23 ± 2.1 kg/m3. It also gave a viscosity ([1]; 308.15 K) of 250.45 ± 14 mPa·s, a mass density ([1]; 308.15 K) of 1465.05 ± 2 kg/m3 and a viscosity ([1]; 318.15 K) of 138.28 ± 5.4 mPa·s. It also gave a mass density ([1]; 318.15 K) of 1455.88 ± 2 kg/m3, a viscosity ([1]; 328.15 K) of 83.59 ± 2.3 mPa·s and a mass density ([1]; 328.15 K) of 1446.76 ± 2 kg/m3. For the same compound, the viscosity ([1]; 338.15 K) was 54.47 ± 1.2 mPa·s, the mass density ([1]; 338.15 K) was 1437.73 ± 2 kg/m3 and the viscosity ([1]; 348.15 K) was 37.59 ± 0.89 mPa·s. It also gave a mass density ([1]; 348.15 K) of 1428.78 ± 2 kg/m3, a viscosity ([1]; 358.15 K) of 27.24 ± 0.65 mPa·s and a mass density ([1]; 358.15 K) of 1419.9 ± 1.9 kg/m3. The Glass transition temperature ([1]; Glass, DTA) was -54 ± 3.8 °C.
